Results as given in US5196449A, “Methods and pharmaceutical compositions for the treatment of ophthalmic diseases” (IdB Holding SpA, priority 1989, dated 1993).

Experiments:
[1] = Acute toxicity in rats, stomach probe; assay type: in vivo; settings: for Toxic symptoms or death (in words): doses up to 6 g/kg; for LD50: rat, in vivo, po
Method: (§1) This was tested on mice and rats after administration by stomach probe. […] The LD 50 must therefore be above 6 g/kg.

[2] = system: conjunctiva, cornea, iris, crystalline lens, vitreous humour and retina; assay: Ocular tolerability after oral administration; assay type: in vivo, New Zealand rabbit; settings: single (200 mg/kg) or repeated (100 mg/kg, 7 days) oral administration
Method: The ocular tolerability of compounds I and II was measured in New Zealand rabbits on the anterior segment (conjunctiva, cornea, iris and crystalline lens) and on the posterior segment (vitreous humour and retina) after oral administration, local application and intra-ocular injection.
Both products were administered by stomach probe, either in a single dose of 200 mg/kg or in repeated doses of 100 mg/kg for 7 days. Surveys were made before and 1, 2 and 4 hours after acute administration, on the third and seventh days after repeated administration and 5 days after suspension of treatment.

[3] = Acute toxicity in mice, stomach probe; assay type: in vivo; settings: for Toxic symptoms or death (in words): doses up to 6 g/kg; for LD50: mouse, in vivo, po
Method: as §1

[4] = system: vessels of the ciliary body (haemato-ophthalmic barrier); assay: Permeability of the haemato-ophthalmic barrier induced by NaOH in the rabbit (Evans Blue); assay type: in vivo, New Zealand rabbit; settings: seven days; for Percentage variation of Evans Blue: vs controls; for Reduction in permeability, significance (in words): 100 mg/kg os; for Permeability of the vessels of the ciliary body caused by the irritating agent (in words): 50 or 100 mg/kg os
Method: (§2) The effect on the permeability of the haemato-ophthalmic barrier was measured by inducing an increase in the permeability of the vessels of the ciliary body, either by paracentesis or by instillation of sodium hydroxide into the conjunctival sac. The reduction in permeability induced by oral administration of the products under examination was then measured.
The experiment was carried out on 50 New Zealand rabbits, average body weight 2.2 kg. The substance was administered once a day for seven days in doses of 50 or 100 mg/kg. A control group was treated with tap water.
Thirty minutes after the last administration, 1 ml of a 0.5% solution of Evans Blue was administered in the marginal vein of the ear. After 30 minutes, inflammation of the eye tissue was produced by instilling two drops of 0.25N sodium hydroxide in the conjunctival sac. Two hours later the animal was anesthesized and a sample of aqueous humour was taken in order to measure the proportion of dye.

[5] = system: vessels of the ciliary body (haemato-ophthalmic barrier); assay: Permeability of the haemato-ophthalmic barrier induced by histamine (corneal lens method, Evans Blue); assay type: in vivo, New Zealand rabbit; settings: for Permeability of the vessels of the ciliary body caused by histamine (in words) / Effects, significance (in words): 100 mg/kg by gavage; for Effects, significance (in words): after 2 and 4 hours; for Evans Blue in aqueous humour, m ± sd / Percentage variation of Evans Blue relative to time 0: 100 mg/kg os
Method: The experiment was carried out on […] New Zealand rabbits, average body weight 2.5 kg, divided into three groups of ten animals each.
The vasal permeability was measured by the dye method: 1 ml of Evans Blue in a concentration of 0.5% was injected into the marginal vein of the ear. After 10 min a soft corneal lens embedded in a 2% solution of histamine hydrochloride was applied for 30 min to the left eye.
The left eye was subjected to paracentesis and a sample of aqueous humour was taken.
Immediately after, the substances were given by gavage at the dose of 100 mg/kg. Two or four hours after administration a lens embedded with histamine as described before was applied for 30 min on the right eye. Paracentesis was carried out and aqueous humor was taken.
The quantity of Evans Blue in the aqueous humor was evaluated as described in 1(i).

[6] = system: vessels of the ciliary body (haemato-ophthalmic barrier); assay: Permeability of the haemato-ophthalmic barrier induced by paracentesis in the rabbit (Evans Blue dye method); assay type: in vivo, New Zealand albino rabbit; settings: for Amount of dye coming out of the vessels of the ciliary body (in words): single dose of 100 or 200 mg/kg, two or four hours after administration
Method: as §2
The experiment was carried out on 80 New Zealand albino rabbits, average body weight 2.8 kg, divided into eight groups each of ten animals.
The vasal permeability was measured by the dye method: 1 ml of Evans Blue in a concentration of 0.5% was injected into the marginal vein of the auricle.
After 10 minutes the left eye was subjected to paracentesis and after 12 minutes a sample of aqueous humour was taken. The quantity of Evans Blue in the sampled aqueous humour was used to assess the permeability of the haemato-ophthalmic barrier. Immediately afterwards, compounds I and II were administered in doses of 100 or 200 mg/kg by stomach probe.
Two or four hours after administration, paracentesis was carried out on the right eye and after 12 minutes a sample of aqueous humour was taken.
The quantity of Evans Blue in the aqueous humour was evaluated by spectrophotometer reading at 623 nm. […]

[7] = 100 mg/kg os, 1 administration, 2 hours
[8] = 100 mg/kg os, 1 administration, 4 hours
[9] = 100 mg/kg os, 7 administrations, 24 hours after last
[10] = 200 mg/kg os, 1 administration, 2 hours
[11] = 200 mg/kg os, 1 administration, 4 hours

Structure (SMILES) | Toxic symptoms or death (in words) [1] | LD50 [1] [mg/kg] | Modifications in ocular structures (in words) [2] | Toxic symptoms or death (in words) [3] | LD50 [3] [mg/kg] | Evans Blue, m ± s.e. ([4]; 50 mg/kg/day os) [µg/mL] | Percentage variation of Evans Blue ([4]; 50 mg/kg/day os) [%] | Reduction in permeability, significance (in words) [4] | Evans Blue, m ± s.e. ([4]; 100 mg/kg/day os) [µg/mL] | Percentage variation of Evans Blue ([4]; 100 mg/kg/day os) [%] | Permeability of the vessels of the ciliary body caused by the irritating agent (in words) [4] | Permeability of the vessels of the ciliary body caused by histamine (in words) [5] | Effects, significance (in words) [5] | Evans Blue in aqueous humour, m ± sd ([5]; 2 hours) [µg/mL] | Percentage variation of Evans Blue relative to time 0 ([5]; 2 hours) [%] | Evans Blue in aqueous humour, m ± sd ([5]; 4 hours) [µg/mL] | Percentage variation of Evans Blue relative to time 0 ([5]; 4 hours) [%] | Evans Blue in aqueous humour, m ± s.d. [6, 7] [µg/mL] | Percentage variation of Evans Blue relative to time 0 [6, 7] [%] | Evans Blue in aqueous humour, m ± s.d. [6, 8] [µg/mL] | other results
Oc1ccc(-c2[o+]c3cc(O)cc(O)c3cc2O)cc1 [Compound I, pelargonidin] | did not cause toxic symptoms or death | > 6000 | did not induce modifications in the conjunctive, cornea, iris, crystalline lens, vitrous humour or retina | did not cause toxic symptoms or death | > 6000 | 5.8 ± 0.8 | -2 | statistically significant compared with the controls | 3.5 ± 0.6 | -40 | dose-dependent reduction in the permeability of the vessels of the ciliary body | reduced permeability of the vessels of the ciliary body caused by histamine | statistically significant compared with the basal values | 86.2 ± 6.1 | -19.0 | 75.9 ± 10.3 | -29.9 | 34.9 ± 8.5 | -15.4 | 46.9 ± 17.5 | Percentage variation of Evans Blue relative to time 0 [6, 8]: -15.5%; Evans Blue in aqueous humour, m ± s.d. [6, 9]: 44.2 ± 11.7 µg/mL; Percentage variation of Evans Blue relative to time 0 [6, 9]: -22.4%; Evans Blue in aqueous humour, m ± s.d. [6, 10]: 42.2 ± 15.0 µg/mL; Percentage variation of Evans Blue relative to time 0 [6, 10]: -16.4%; Evans Blue in aqueous humour, m ± s.d. [6, 11]: 44.8 ± 20.2 µg/mL; Percentage variation of Evans Blue relative to time 0 [6, 11]: -15.6%; Amount of dye coming out of the vessels of the ciliary body (in words) [6]: reduced in a statistically significant manner
Oc1cc(O)c2cc(O)c(-c3cc(O)c(O)c(O)c3)[o+]c2c1 [Compound II, delphinidin] | did not cause toxic symptoms or death | > 6000 | did not induce modifications in the conjunctive, cornea, iris, crystalline lens, vitrous humour or retina | did not cause toxic symptoms or death | > 6000 | 5.1 ± 0.7 | -14 | statistically significant compared with the controls | 3.2 ± 0.4 | -45 | dose-dependent reduction in the permeability of the vessels of the ciliary body | reduced permeability of the vessels of the ciliary body caused by histamine | statistically significant compared with the basal values | 82.0 ± 7.0 | -25.3 | 68.8 ± 8.7 | -31.7 | 41.5 ± 7.9 | -14.1 | 45.6 ± 9.7 | Percentage variation of Evans Blue relative to time 0 [6, 8]: -14.9%; Evans Blue in aqueous humour, m ± s.d. [6, 9]: 42.5 ± 13.3 µg/mL; Percentage variation of Evans Blue relative to time 0 [6, 9]: -20.8%; Evans Blue in aqueous humour, m ± s.d. [6, 10]: 45.1 ± 10.3 µg/mL; Percentage variation of Evans Blue relative to time 0 [6, 10]: -15.1%; Evans Blue in aqueous humour, m ± s.d. [6, 11]: 45.9 ± 12.2 µg/mL; Percentage variation of Evans Blue relative to time 0 [6, 11]: -15.1%; Amount of dye coming out of the vessels of the ciliary body (in words) [6]: reduced in a statistically significant manner
